The source of these data is patent US20220304979A1, “METHODS OF REDUCING DISEASE FLARES” (Chinook Therapeutics, Inc., priority 2019, published 2022).

The subject of test [1] is primary human renal mesangial cells (HRMCs). Description: proliferation (BrdU) of mesangial cells stimulated with IgA-containing immune complexes. It counts as cell-based. The following applies: immune complexes purified from three patients with IgA nephropathy. From the text: Primary human mesangial cells in a culture were stimulated with pathogenic galactose deficient (Gd)-IgA containing immune complexes isolated from human IgA nephropathy patients. […] Specifically, pathogenic IgA-containing immune complexes were isolated from serum from either IgA nephropathy patients or age, gender and ethnicity-matched healthy individuals. Frozen serum was purchased from BioIVT and IgA-containing immune complexes were purified using jacalin affinity chromatography. […] Purified IgA-containing immune complexes were concentrated using a 100K Amicon filtration unit and the amount of total IgA and galactose-deficient IgA (Gd-IgA) in the immune complexes was measured by ELISA (ThermoFisher and IBL America, respectively). […] See, e.g., Novak et. al., Kidney International, 67, pp. 504-516; 2005; Novak et. al., Nephrol. Dial. Transplant, 26, pp. 3451-3457; 2011; Liang et. al., Cell Physiol. Biochem., 36, pp. 1793-1808; 2015; Nguyen et. al., Clin. Kidney 1, 12 (2), pp, 232-238; 2019.

For the next test, the system named is g-ddY mice. Description: albuminuria (UACR) in g-ddY mouse model of IgA nephropathy. It counts as in vivo. The following applies: for albuminuria compared to baseline: approximately 5 days. From the text:
The grouped ddY (g-ddY) mouse is a spontaneous model of early-onset IgA nephropathy characterized by IgA immune complex deposition in the mesangium of the kidney, leading to significant proteinuria, glomerular hypercellularity, mesangioproliferative glomerular lesions, glomerular sclerosis and reduced kidney function, all hallmarks of human IgA nephropathy (J Am Soc Nephrol 23: 1364-1374, 2012). Consistent with human IgA nephropathy, the mesangial IgA deposits in the g-ddY mouse are also accompanied by deposition of IgG and complement C3.

The test system of test [2] is kidney tissue of g-ddY mice. Description: Ingenuity Pathway Analysis (IPA) canonical pathways of kidney RNA-seq, g-ddY mice. It counts as in vivo, mouse. The following applies: 30 mg/kg/day.
For test [3] the following is noted: patients with diabetic kidney disease (DKD); cited from earlier work.

As to `CCCCN(CCCC)C(=O)CN1C[C@H](c2ccc3c(c2)OCO3)[C@@H](C(=O)O)[C@@H]1c1ccc(OC)cc1` [atrasentan, (2R,3R,4S)-4-(1,3-benzodioxol-5-yl)-1-[2-(dibutylamino)-2-oxoethyl]-2-(4-methoxyphenyl)pyrrolidine-3-carboxylic acid], in test [1], the “hyperproliferation of HRMCs induced by IgA containing immune complexes” value was “significantly attenuated the hyperproliferation”. Besides, the “effect to reduce UACR from baseline compared to control group” value with g-ddY mice (10 mg/kg/day) is “not significant”; in the test on g-ddY mice (20 mg/kg/day, P=0.0498, un-paired t-test) it was “statistically significant compared to the control group”; with g-ddY mice (30 mg/kg/day, P=0.029) it was “statistically significant compared to the control group”. In addition, the “albuminuria compared to baseline” value in the test with g-ddY mice (20 mg/kg/day, just failed statistical significance (P=0.0593)) was “reduced from baseline to a similar extent”; in the test with g-ddY mice (30 mg/kg/day, paired t-test) it was “significantly (P=0.0002, paired two-sided t-test) reduced albuminuria from baseline”. For the same compound, the “signaling pathways by IPA analysis” value in test [2] is “reduced NF-κB signaling, IL-6 pathway signaling (e.g., STAT3), and PDGF signaling”. The “risk of renal events (doubling of serum creatinine or end-stage kidney disease)” value in test [3] is given as “significantly reducing the risk of renal events”.
